# System: ATF4 luciferase reporter (human full-length ATF4 5'-UTR fused to firefly luciferase) in HEK293T cells
# Experiment: ATF4-Luc assay (in vitro model of VWMD): HEK293T cells carrying ATF4 luciferase reporter, tunicamycin-treated
# Format: cell-based
# Conditions: Homo sapiens, HEK-293T, 1 μg/mL tunicamycin, 7 hours, One Glo luminescence
# Outline: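 Reporter cells were stably generated by retroviral transduction and puromycin selection, then seeded at 30,000 cells/well. Next day, cells received 1 μg/mL tunicamycin with 200 nM test compound for 7 h, and luciferase luminescence was read with a one-step reagent. Values reported as EC50.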
row,SMILES,EC50
1,"O=C(COc1ccc(Cl)c(F)c1)NC12CC(NC(=O)[C@H]3C[C@@H](O)c4cc(Cl)c(F)cc4O3)(C1)C2 [Compound 264, (2R,4R)-6-chloro-N-{3-[2-(4-chloro-3-fluorophenoxy)acetamido]bicyclo[1.1.1]pentan-1-yl}-7-fluoro-4-hydroxy-3,4-dihydro-2H-1-benzopyran-2-carboxamide]",< 10 nM
2,"O=C(COc1ccc(Cl)c(F)c1)NC12CC(NC(=O)[C@H]3C[C@@H](O)c4cc(Cl)ccc4O3)(C1)C2 [Compound 196, (2R,4R)-6-chloro-N-{3-[2-(4-chloro-3-fluorophenoxy)acetamido]bicyclo[1.1.1]pentan-1-yl}-4-hydroxy-3,4-dihydro-2H-1-benzopyran-2-carboxamide]",< 10 nM
3,"O=C(COc1ccc(C(F)(F)F)nc1)NC12CC(NC(=O)[C@H]3CC(=O)c4cc(Cl)ccc4O3)(C1)C2 [Compound 225, (2R)-6-chloro-4-oxo-N-[3-(2-{[6-(trifluoromethyl)pyridin-3-yl]oxy}acetamido)bicyclo[1.1.1]pentan-1-yl]-3,4-dihydro-2H-1-benzopyran-2-carboxamide]",10 to 50 nM
4,"O=C(COc1ccc(Cl)c(F)c1)NC12CC(NC(=O)C3CC(O)c4ccc(Cl)cc4O3)(C1)C2 (centres unmarked) [Compound 247, 7-chloro-N-{3-[2-(4-chloro-3-fluorophenoxy)acetamido]bicyclo[1.1.1]pentan-1-yl}-4-hydroxy-3,4-dihydro-2H-1-benzopyran-2-carboxamide]",< 10 nM
5,"O=C(NC12CCC(NC(=O)[C@H]3C[C@@H](O)c4cc(Cl)ccc4O3)(C1)C2)c1ccc(OC(F)(F)F)cn1 (racemic) [Compound 293, N-(4-{[rac-(2R,4R)-6-chloro-4-hydroxy-3,4-dihydro-2H-1-benzopyran-2-carbonyl]amino}bicyclo[2.1.1]hexan-1-yl)-5-(trifluoromethoxy)pyridine-2-carboxamide]",10 to 50 nM
6,"O=C(COc1ccc(Cl)c(F)c1)NC12CC(NC(=O)C3CN(C(=O)c4ccc(S(=O)(=O)F)cc4)c4cc(Cl)ccc4O3)(C1)C2 (centres unmarked) [Compound 147, 4-[6-chloro-2-({3-[2-(4-chloro-3-fluorophenoxy)acetamido]bicyclo[1.1.1]pentan-1-yl}carbamoyl)-2,3-dihydro-4H-1,4-benzoxazine-4-carbonyl]benzene-1-sulfonyl fluoride]",500 to 2000 nM
7,"O=C(COc1ccc(Cl)c(F)c1)NC12CC(NC(=O)[C@@H]3C[C@@H](N[C@H]4C[C@@H](O)C4)c4cc(Cl)ccc4O3)(C1)C2 [Compound 316, (2S,4R)-6-chloro-N-{3-[2-(4-chloro-3-fluorophenoxy)acetamido]bicyclo[1.1.1]pentan-1-yl}-4-{[(1s,3S)-3-hydroxycyclobutyl]amino}-3,4-dihydro-2H-1-benzopyran-2-carboxamide]",50 to 250 nM
8,"CN1c2ccc(Cl)cc2CC1C(=O)NC12CC(NC(=O)COc3ccc(Cl)c(F)c3)(C1)C2 (centres unmarked) [Compound 266, 5-chloro-N-{3-[2-(4-chloro-3-fluorophenoxy)acetamido]bicyclo[1.1.1]pentan-1-yl}-1-methyl-2,3-dihydro-1H-indole-2-carboxamide]",50 to 250 nM
9,"CN1CC(C(=O)NC23CCC(NC(=O)COc4ccc(Cl)c(F)c4)(CC2)[C@@H](O)C3)Oc2ccc(Cl)cc21 (stereo partly drawn) [Compound 107, 6-chloro-N-{(3S)-4-[2-(4-chloro-3-fluorophenoxy)acetamido]-3-hydroxybicyclo[2.2.2]octan-1-yl}-4-methyl-3,4-dihydro-2H-1,4-benzoxazine-2-carboxamide]",< 10 nM
10,"O=C(COc1ccc(Cl)c(F)c1)NC12CC(NC(=O)[C@H]3CN(CC4(O)CC4)c4cc(Cl)ccc4O3)(C1)C2 [Compound 325, (2R)-6-chloro-N-{3-[2-(4-chloro-3-fluorophenoxy)acetamido]bicyclo[1.1.1]pentan-1-yl}-4-[(1-hydroxycyclopropyl)methyl]-3,4-dihydro-2H-1,4-benzoxazine-2-carboxamide]",10 to 50 nM
11,"O=C(COc1ccc(Cl)c(F)c1)NC12CCC(NC(=O)C3CC(=O)c4cc(Cl)ccc4O3)(CC1)NC2=O (centres unmarked) [Compound 363, 6-chloro-N-{4-[2-(4-chloro-3-fluorophenoxy)acetamido]-3-oxo-2-azabicyclo[2.2.2]octan-1-yl}-4-oxo-3,4-dihydro-2H-1-benzopyran-2-carboxamide]",10 to 50 nM
12,"O=C(COc1ccc(Cl)c(F)c1)NC12CCC(NC(=O)C3CC(O)c4cc(Cl)ccc4O3)(CC1)CC2 (centres unmarked) [Compound 337, 6-chloro-N-{4-[2-(4-chloro-3-fluorophenoxy)acetamido]bicyclo[2.2.2]octan-1-yl}-4-hydroxy-3,4-dihydro-2H-1-benzopyran-2-carboxamide]",< 10 nM
13,"CCc1ncc(C(=O)NC23CC(NC(=O)[C@H]4C[C@@H](O)c5cc(Cl)ccc5O4)(C2)C3)o1 [Compound 384, N-(3-{[(2R,4R)-6-chloro-4-hydroxy-3,4-dihydro-2H-1-benzopyran-2-carbonyl]amino}bicyclo[1.1.1]pentan-1-yl)-2-ethyl-1,3-oxazole-5-carboxamide]",50 to 250 nM
14,"Cc1cc(OCC(=O)NC23CC(NC(=O)[C@@H]4C[C@H](O)c5cc(Cl)ccc5O4)(C2)C3)ccc1F [Compound 360, (2S,4S)-6-chloro-N-{3-[2-(4-fluoro-3-methylphenoxy)acetamido]bicyclo[1.1.1]pentan-1-yl}-4-hydroxy-3,4-dihydro-2H-1-benzopyran-2-carboxamide]",10 to 50 nM
15,"O=C(COc1ccc(Cl)c(F)c1)NC12CCC(NC(=O)C3CC(=O)c4cc(Cl)ccc4O3)(CC1)C[C@@H]2O (stereo partly drawn) [Compound 199C, 6-chloro-N-{(3S)-4-[2-(4-chloro-3-fluorophenoxy)acetamido]-3-hydroxybicyclo[2.2.2]octan-1-yl}-4-oxo-3,4-dihydro-2H-1-benzopyran-2-carboxamide]",< 10 nM
16,"O=C(COc1ccc(Cl)c(F)c1)NC12CC(NC(=O)c3cc(=O)c4ccc(Cl)cc4o3)(C1)C2 [Compound 235, 7-chloro-N-{3-[2-(4-chloro-3-fluorophenoxy)acetamido]bicyclo[1.1.1]pentan-1-yl}-4-oxo-4H-1-benzopyran-2-carboxamide]",10 to 50 nM
17,"Cc1cc2c(cc1F)[C@H](O)C[C@H](C(=O)NC13CC(NC(=O)COc4ccc(Cl)c(F)c4)(C1)C3)O2 (single isomer, unassigned) [Compound 241]",< 10 nM
18,"O=C(COc1ccc(Cl)c(F)c1)NC12CCC(NC(=O)[C@@H]3C[C@H](O)c4cc(Cl)ccc4O3)(CC1)CC2 [Compound 306, (2S,4S)-6-chloro-N-{4-[2-(4-chloro-3-fluorophenoxy)acetamido]bicyclo[2.2.2]octan-1-yl}-4-hydroxy-3,4-dihydro-2H-1-benzopyran-2-carboxamide]",10 to 50 nM
19,"O=C(COc1ccc(Cl)c(F)c1)NC12CC(NC(=O)C3CC(NCC(F)(F)F)c4cc(Cl)ccc4O3)(C1)C2 (centres unmarked) [Compound 336, 6-chloro-N-{3-[2-(4-chloro-3-fluorophenoxy)acetamido]bicyclo[1.1.1]pentan-1-yl}-4-[(2,2,2-trifluoroethyl)amino]-3,4-dihydro-2H-1-benzopyran-2-carboxamide]",250 to 500 nM
20,"NC1CC(C(=O)NC23CC(NC(=O)COc4ccc(Cl)c(F)c4)(C2)C3)Oc2ccc(Cl)cc21 (centres unmarked) [Compound 305, 4-amino-6-chloro-N-{3-[2-(4-chloro-3-fluorophenoxy)acetamido]bicyclo[1.1.1]pentan-1-yl}-3,4-dihydro-2H-1-benzopyran-2-carboxamide]",< 10 nM
